# Patent US20140004108A1, “Methods for Modulation of Autophagy Through the Modulation of Autophagy-Enhancing Gene Products” (HARVARD MEDICAL SCHOOL, priority 2009, published 2014)
# “Also recorded” adds a separate entry of the source.
# Columns and labels:
# Type in all cases: cell-based, human
# H4 cells = assay: Western blot of signalling phosphorylation (phospho-ERK1/2, RSK, Stat3, Akt, Foxo3a, S6K); conditions: for activating phosphorylation of Stat3: H4, 50 ng/mL LIF or CLCF1
# Method: (§1) For the cytokine assays, cells were seeded at 0.5×10^5 in full medium in either 24-well (western) or 96-well (LC3-GFP quantification) plates. After 24 hours, cells were washed in PBS and serum-free OPTIMEM™ medium (Invitrogen) was added along with the indicated growth factors and/or cytokines for an additional 24 hours. Growth factors and cytokines used include human TNFα (Cell Sciences), human LIF (GeneScript Corporation), human FGF2 (ProSpec), human IGF1 (ProSpec), human SDF1 (Prospec) and human CLCF1 (R&D Systems). To induce starvation, cells were cultured for 24 hours in full media, washed in PBS and cultured for additional 4 hours in HBSS media (Invitrogen).
# (§2) For western blots, cells were lysed in Lammeli sample buffer, resolved on a 10-12% SDS-PAGE gel and transferred to PVDF membrane. The following antibodies were used: LC3 (Novus), p62 (Pharmigen), phospho-S6K (Thr389), phospho-Akt (Ser473), phospho-Stat3 (Tyr705), RelA, Sod1, phospho-PTEN (Ser380/Thr382/383) (all Cell Signaling), Bcl-2 (Santa Cruz), all at 1:1000, phospho-S6 (Ser235/236) (Cell Signaling) and phospho-ERK 1/2 (Sigma) at 1:2000, tubulin (Sigma) at 1:5000. Where indicated, blots were quantified using NIH ImageJ64 software.
# LC3 = assay: Western blot of autophagy markers (LC3 II, p62, Atg12-Atg5); conditions: for autophagy by LC3 western blot (LC3 II/tubulin ratio): 100 ng/mL IGF1, 50 ng/mL FGF2, LIF or CLCF1, 10 μg/mL E64d, with or without 50 nM rapamycin pre-treatment
# Method: as §1
# (§3) For western blot analysis, lysosomal protease inhibitor E64d (Sigma) was added at a concentration of 10 μg/mL for the last 8-12 hours before cell lysis.
# as §2
# [1] = system: H4 cells stably expressing LC3-GFP; assay: LC3-GFP translocation to autophagosomes, image-based autophagy assay; conditions: for autophagy as measured by LC3-GFP translocation: H4 LC3-GFP cells grown in serum-free medium, treated with cytokine
# Method: (§4) H4 human neuroblastoma cells were cultured under standard tissue culture conditions in DMEM media supplemented with 10% normal calf serum, penicillin/streptomycin, sodium pyruvate (Invitrogen) and, where appropriate, 0.4-1.2 mg/mL G418. LC3-GFP and FYVE-dsRed H4 cells were generated as described in Zhang et al., PNAS, 102, 15545-15550 ([…]). To create a stable line expressing Lamp1, H4 cells were transfected with Lamp1-RFP plasmid using TRANSIT_LT1® transfection reagent (Mirus), followed by selection with 0.4 mg/mL G418. Bcl-2 expressing cell lines were created by infecting LC3-GFP and FYVE-dsRed H4 cells with pBabe-Bcl-2 retrovirus, followed by selection with 1 μg/mL puromycin.
# as §1, §3
# For the primary screens, an arrayed library of 21,121 siRNA pools covering the majority of the human genome were used (Dharmacon siARRAY™ siRNA library (Human Genome, G-005000-05), Thermo Fisher Scientific, Lafayette, Colo.). Each pool contained of 4 unique oligonucleotides targeting different sequences from the same gene. Each assay plate also included the following controls: non-targeting siRNA, mTOR siRNA, ATG5 siRNA and PLK1 siRNA (a transfection efficiency control). siRNAs were transiently transfected in triplicate into H4 cells stably expressing a LC3-GFP reporter at a final concentration of 40 nM using reverse transfection with the […]® reagent (Qiagen). […]® reagent was diluted 1:20 in DMEM and 8 μl of the mixture was added to wells of 384 well plates. The plates were centrifuged at 1,000 rpm, after which 2 μl of 1 μM arrayed siRNA pools were added to each well. After 30 minutes of incubation, 500 cells in 40 μl of media were added to the wells. Cells were incubated for 72 hours under standard culture conditions, counterstained with 0.5 μM Hoechst 33342 (Invitrogen) for 1 hour and fixed by addition of 30 μl of 8% paraformaldehyde. After 30 minutes, cells were washed 3 times with PBS prior to analysis.
# For secondary screens, a siRNA library was used in which the 4 siRNAs of each siRNA pool were separated into individual wells. The cells were transfected and treated as in the primary screen, except that siRNAs were used at a final concentration of 30 nM (1.5 μL/well of 1 uM stock) and […]® reagent was diluted 1:30 in OPTIMEM™ (Invitrogen). The secondary screen transfections were done in 2 rounds: in the first one a 1:1 mixture of H4 cells stably expressing LC3-GFP with FYVE-dsRed was transfected in triplicate; in the second round a 1:1 mixture of H4 cells expressing LC3-GFP with Lamp1-RFP was transfected in duplicate. All tertiary characterization screens were done in duplicate using a mixture of LC3-GFP and FYVE-dsRed cells. Each assay plate included 10-12 wells of non-targeting siRNA as well as mTOR, ATG5, PLK1 and, depending on screen, Vps34 or SOD1 siRNA controls.
# (§5) For high-throughput screens, cells were imaged on an automated CellWoRx microscope (Applied Precision) at 10× magnification using 2 wavelengths (350 nm to detect Hoechst, 488 nm to detect LC3-GFP) for the primary screens and 3 wavelengths (350 nm, 488 nm and 550 nm to detect Lamp1-RFP or FYVE-dsRed) for the secondary screens.
# GRP78 and GRP94 = assay: In-cell-western of KDEL (GRP78/GRP94) expression, ER stress; conditions: H4 cells
# Method: For quantitative analysis of mTORC1 signaling and induction of endoplasmic reticulum stress, in-cell-western analysis of rpS6 phosphorylation and KDEL (GRP78/GRP94) expression (‘KDEL’ disclosed as SEQ ID NO: 2), respectively, were performed. H4 cells were cultured in 384-well plates and fixed and counterstained as described for the LC3-GFP assay. Following imaging, the cells were permeabilized in PBS containing 0.2% Tx-100 and stained with ALEXA FLOUR®—680NHS-ester, a non-specific lysine reactive probe used to measure relative cell number, at 20 ng/mL for 15 minutes. Subsequently, the cells were washed with PBS containing 0.2% Tx-100 and incubated for 30 minutes in blocking buffer (LICOR® Blocking Buffer diluted 1:1 with PBS+0.2% Tx-100). Cells were then incubated overnight with a rabbit-anti-rpS6 phospho-235/236 (Cell Signaling Technologies), or mouse-anti-KDEL (Stressgen) antibody (‘KDEL’ disclosed as SEQ ID NO: 2) diluted 1:1000 in blocking buffer. […] The intensities of both, the rpS6 phospho-235/236 or KDEL staining (‘KDEL’ disclosed as SEQ ID NO: 2), and of NHS-ester staining were integrated, and the normalized phospho-S6 or KDEL score (‘KDEL’ disclosed as SEQ ID NO: 2) were calculated by dividing phospho-rpS6 or KDEL intensity (‘KDEL’ disclosed as SEQ ID NO: 2) by NHS-ester intensity. […]
# type III PI3 kinase = assay: FYVE-dsRed vesicle recruitment (PtdIns3P levels); conditions: FYVE-dsRed cells, 3MA 10 mM 8 hours or NAC
# Method: as §4, §5
molecule,measurement,setting,value
LIF: human LIF (GeneScript Corporation); leukemia inhibitory factor,activating phosphorylation of Stat3,H4 cells,increased activating phosphorylation of Stat3
same,autophagy by LC3 western blot (LC3 II/tubulin ratio),"LC3; H4, serum-free",able to suppress autophagy in the absence and presence of rapamycin
same,autophagy as measured by LC3-GFP translocation,[1],significant down-regulation of autophagy
FGF2: human FGF2 (ProSpec); fibroblast growth factor 2 (basic),phospho-ERK1/2 and phospho-RSK levels,"H4 cells; H4, serum-free, 50 ng/mL FGF2",increased level of phospho-ERK1/2 and phospho-RSK
same,autophagy by LC3 western blot (LC3 II/tubulin ratio),"LC3; H4, serum-free",able to suppress autophagy in the absence and presence of rapamycin
same,autophagy as measured by LC3-GFP translocation,[1],significant down-regulation of autophagy
tunicamycin [reference compound],levels of GRP78 and GRP94 (ER stress markers),GRP78 and GRP94,dose-dependent up-regulation of GRP78 and GRP94
same,autophagy after ER stress inducer,[1]; H4 cells,increase in autophagy
SDF1: human SDF1 (Prospec); chemokine SDF1 (CXCL12),autophagy as measured by LC3-GFP translocation,[1],significant down-regulation of autophagy
"CC(=O)N[C@@H](CS)C(=O)O [NAC, N-acetyl-L-cysteine, reference compound]",Aβ-induced accumulation of PtdIns3P in presence of inhibitor or antioxidant,type III PI3 kinase,suppressed
same,induction of autophagy caused by knock-down of Sod1,"[1]; H4 LC3-GFP, with antioxidant NAC 2.5 mM",significantly attenuated induction of autophagy
"N#CC(=C(/N)Sc1ccccc1N)/C(C#N)=C(/N)Sc1ccccc1N [UO126, reference compound]","inhibition of autophagy by FGF2, effect of MEK inhibitor","LC3; H4, serum-free, 50 ng/mL FGF2, 10 μg/mL E64d, pre-treatment with UO126",attenuated inhibition of autophagy; also recorded: prevented
IGF1: human IGF1 (ProSpec); insulin-like growth factor 1,phosphorylation of Akt and Foxo3a,"H4 cells; in both the absence and presence of rapamycin, 100 ng/mL IGF1",increased
same,autophagy by LC3 western blot (LC3 II/tubulin ratio),"LC3; H4, serum-free",able to suppress autophagy in the absence and presence of rapamycin
same,autophagy as measured by LC3-GFP translocation,[1],significant down-regulation of autophagy
"O=c1[nH]c2ccccc2n1C1CCN(Cc2ccc(-c3nc4cc5[nH]cnc5cc4nc3-c3ccccc3)cc2)CC1 [Akt inhibitor VIII, reference compound]",phosphorylation of Foxo3a and S6 kinase,H4 cells; IGF1-treated cells with Akt inhibitor VIII,attenuated phosphorylation of both Foxo3a and the mTORC1 target S6 kinase
same,"inhibition of autophagy by IGF1, effect of Akt inhibitor","LC3; 100 ng/mL IGF1, LC3 western",prevented inhibition of autophagy by IGF1
TNFα,p62 level by western blot,"LC3; H4 cells, low levels of TNFα (5 ng/ml, FIG. 31B)",significant accumulation of p62
same,"autophagy (LC3-GFP), higher doses","[1]; H4 LC3-GFP cells in defined medium, higher doses of TNFα",up-regulation of autophagy
same,"autophagy (LC3-GFP), low doses","[1]; H4 LC3-GFP cells in defined medium, low doses of TNFα",down-regulation of autophagy
"CLCF1: human CLCF1 (R&D Systems); cardiotrophin-like cytokine factor 1 (protein, UniProt Q9UBD9 28-225, looked up) Cardiotrophin-like cytokine …: LNRTGDPGPGPSIQKTYDLTRYLEHQLRSLAGTYLNYLGPPFNEPDFNPPRLGAETLPRATVDLEVWRSLNDKLRLTQNYEAYSHLLCYLRGLNRQAATAELRRSLAHFCTSLQGLLGSIAGVMAALGYPLPQPLPGTEPTWTPGPAHSDFLQKMDDFWLLKELQTWLWRSAKDFNRLKKKMQPPAAAVTLHLGAHGF",activating phosphorylation of Stat3,H4 cells,increased activating phosphorylation of Stat3
same,autophagy by LC3 western blot (LC3 II/tubulin ratio),"LC3; H4, serum-free",able to suppress autophagy in the absence and presence of rapamycin
same,autophagy as measured by LC3-GFP translocation,[1],significant down-regulation of autophagy
